Here are results for 9 compounds from US10231956B2, “3-(1H-pyrrolo[3,2-C]pyridin-2-YL)-1 H-pyrazolo[4,3-B]pyridines and therapeutic uses thereof” (Samumed, LLC, priority 2015, dated 2019).

What all share (assay type): cell-based
Assay [1] has as its system primary human fibroblasts derived from IPF patients (LL29 cells). The experiment in a line: Inhibition of fibrotic process: αSMA staining in TGF-β1 treated LL29 fibroblasts. The following applies: Fibroblast, 96 h, TGF-β1 20 ng/mL, 4 days, % cells positive for αSMA. From the text: Representative compounds were screened using primary human fibroblasts (derived from IPF patients) treated with TGF-β1 to determine their ability to inhibit the fibrotic process.
Human Fibroblast Cell Culture: Primary human fibroblasts derived from IPF patients (LL29 cells) [^1Xiaoqiu Liu, et. al., “Fibrotic Lung Fibroblasts Show Blunted Inhibition by cAMP Due to Deficient cAMP Response Element-Binding Protein Phosphorylation”, Journal of Pharmacology and Experimental Therapeutics (2005), 315(2), 678-687; ^2Watts, K. L., et. al., “RhoA signaling modulates cyclin D1 expression in human lung fibroblasts; implications for idiopathic pulmonary fibrosis”, Respiratory Research (2006), 7(1), 88] were obtained from American Type Culture Collection (ATCC) and expanded in F12 medium supplemented with 15% Fetal Bovine Serum and Penicillin/Streptomycin.
Compound Screening: Each compound was dissolved in DMSO as a 10 mM stock and used to prepare compound source plates. Serial dilution (1:2, 11-point dose-response curves from […]) and compound transfer was performed using the ECHO 550 (Labcyte, Sunnyvale, Calif.) into 384-well clear bottom assay plates (Greiner Bio-One) with appropriate DMSO backfill for a final DMSO concentration of 0.1%. LL29 cells are plated at 1,500 cells/well in 80 μL/well F12 medium supplemented with 1% Fetal Bovine Serum. One hour after addition of the cells, TGF-β1 (Peprotech; 20 ng/mL) was added to the plates to induce fibrosis (ref. 1 and 2 above). Wells treated with TGF-β1 and containing DMSO were used as controls. Cells were incubated at 37° C. and 5% CO2 for 4 days. Following incubation for 4 days, SYTOX green nucleic acid stain (Life Technologies [Thermo Fisher Scientific]) was added to the wells at a final concentration of 1 μM and incubated at room temperature for 30 min. Cells were then fixed using 4% formaldehyde (Electron Microscopy Sciences), washed 3 times with PBS followed by blocking and permeabilization using 3% Bovine Serum Albumin (BSA; Sigma) and 0.3% Triton X-100 (Sigma) in PBS. Cells were then stained with antibody specific to α-smooth muscle actin (αSMA; Abcam) (ref. 1 and 2 above) in 3% Bovine Serum Albumin (BSA; Sigma) and 0.3% Triton X-100 (Sigma) in PBS, and incubated overnight at 4° C. Cells were then washed 3 times with PBS, followed by incubation with Alexa Flor-647 conjugated secondary antibody (Life Technologies [Thermo Fisher Scientific]) and DAPI at room temperature for 1 hour. Cells were then washed 3 times with PBS and plates were sealed for imaging. αSMA staining was imaged by excitation at 630 nm and emission at 665 nm and quantified using the Compartmental Analysis program on the CellInsight CX5 (Thermo Scientific). Dead or apoptotic cells were excluded from analysis based on positive SYTOX green staining. % of total cells positive for αSMA were counted in each well and normalized to the average of 11 wells treated with TGF-β1 on the same plate using Dotmatics' Studies Software. The normalized averages (fold change over untreated) of 3 replicate wells for each compound concentration were used to create dose-responses curves and EC50 values were calculated using non-linear regression curve fit in the Dotmatics' Studies Software. For EC50 of >10 μM, the percent inhibition at 10 μM is provided.

Assay [2] deals with IL-6. Briefly: IL-6 inhibition in LPS-stimulated THP-1 cells (HTRF). The conditions noted are these: Homo sapiens, LPS 500 ng/mL, 22 hours, IL6 HTRF. The method, then:
Human Monocyte Cell Culture: Human monocyte cell line (THP-1 cells; Catalog # TIB-202, ATCC, Manassas, Va.) were cultured in Roswell Park Memorial Institute (RPMI) 1640 Medium (Catalog #21870-100, Buffalo, N.Y.) with 1% L-glutamine, 1% HEPES, 1% Sodium Pyruvate, 2% Sodium Bicarbonate supplemented with 100 units/mL penicillin, 50 μg/mL streptomycin, 2-mercaptoethanol (0.05 mM) [basal medium] and 10% fetal bovine serum (Catalog #16140089, Life Technologies, Carlsbad, Calif.) at 37° C. and 5% CO2.
Compound Screening: THP-1 cells were cultured in basal media with 1% FBS for 24 hours before the start of the assay. Each compound was dissolved in DMSO as a 10 mM stock and used to prepare compound source plates. Serial dilution (1:3, 10-point dose-response curves starting from 1 μM) and compound transfer was performed using the ECHO 550 (Labcyte, Sunnyvale, Calif.) into 384-well white low volume assay plates (Greiner Bio-One) with appropriate DMSO backfill for a final DMSO concentration of 0.1%. THP-1 cells were plated at 5000 cells/well in the 384-well plates and incubated at 37° C. for 2 h. 500 ng/mL of LPS was added after 2 hours and cells were incubated for another 22 hours at 37° C. Plates were spun in a centrifuge for 1 minute at 10,000 rpm and a mixture of anti-IL6 XL665, and anti-IL6 Cryptate diluted in reconstitution buffer (Cisbio Inc.) was added to each well. Following incubation for 3 hrs at room temperature, Homogeneous Time-Resolved Fluorescence (HTRF) was measured using the Envision (Perkin Elmer) at 665 nm and […]. The ratio of fluorescence at 665 nm to 620 nm was used as a readout for IL6 quantification. All samples were processed in duplicate. Readings were normalized to DMSO treated cells and normalized activities were utilized for EC50 calculations using the dose-response log (inhibitor) vs. response-variable slope (four parameters) nonlinear regression feature available in GraphPad Prism 5.0 (or Dotmatics). For EC50 of >10 μM, the percent inhibition at 10 μM is provided.
On the technique in general: TR-FRET usually uses a lanthanide donor and a delayed reading to cut background.

Assay [3] has as its system SW480 colon cancer cells. The experiment in a line: Cell viability assay (CellTiter-Blue) in SW480 colon cancer cells. The conditions noted are these: Homo sapiens, 96 h, four days, CellTiter-Blue. As to the method:
Representative compounds were screened using the following assay procedure to assess the effect on cell viability as described below.
Each compound was dissolved in DMSO as a 10 mM stock and used to prepare compound source plates. Serial dilution (1:3, 8-point dose-response curves from 10 μM to 0.0045 μM) and compound transfer was performed using the ECHO 550 (Labcyte, Sunnyvale, Calif.) into 96-well clear bottom, black-walled plates (Corning-Costar).
Approximately 2×10^3 SW480 colon cancer cells were seeded into each well and allowed to incubate in the presence or absence of compound for four days at 37° C./5% CO2. Eight replicates of DMSO-treated cells served as controls and cells treated with compound were performed in duplicate.
After incubation, 20 μL of CellTiter-Blue (Promega) was added to each well allowed to incubate for approximately 3 hours. This reagent was a buffered solution which contains resazurin, metabolically active cells were able to reduce rezarurin (blue) into resorufin (pink) which was highly fluorescent. This measured fluorescence was used as a readout for cell viability.
After incubation, the plates were read at Ex 560 nm Em 590 nm (Cytation 3, BioTek). Dose-response curves were generated and EC50 concentration values were calculated using non-linear regression curve fit in the GraphPad Prism (San Diego, Calif.) or Dotmatics' Studies Software (Bishops Stortford, UK). For EC50 of >10 μM, the percent inhibition at 10 μM is provided.
In general terms: The colour change of resazurin is a common sign of viable cells or microbes.

Assay [4] has as its system Wnt activity (Sp5-Luc reporter, SW480 colon carcinoma cells). Briefly: Sp5-Luc reporter gene screening assay for Wnt activity in SW480 cells. The following applies: Homo sapiens, luminescence, overnight incubation. The source says: The screening assay for Wnt activity is described as follows. Reporter cell lines can be generated by stably transducing cancer cell lines (e.g., colon cancer) or primary cells (e.g., IEC-6 intestinal cells) with a lentiviral construct that includes a Wnt-responsive promoter driving expression of the firefly luciferase gene.
SW480 colon carcinoma cells were transduced with a lentiviral vector expressing luciferase with a human Sp5 promoter consisting of a sequence of eight TCF/LEF binding sites. SW480 cells stably expressing the Sp5-Luc reporter gene and a hygromycin resistance gene were selected by treatment with 150 μg/mL of hygromycin for 7 days. These stably transduced SW480 cells were expanded in cell culture and used for all further screening activities. Each compound was dissolved in DMSO as a 10 mM stock and used to prepare compound source plates. Serial dilution (1:3, 10-point dose-response curves starting from 10 μM) and compound transfer was performed using the ECHO 550 (Labcyte, Sunnyvale, Calif.) into 384-well white solid bottom assay plates (Greiner Bio-One) with appropriate DMSO backfill for a final DMSO concentration of 0.1%. For Sp5-Luc reporter gene assays, the cells were plated at 4,000 cells/well in 384-well plates with medium containing 1% fetal bovine serum and incubated overnight at 37° C. and 5% CO2. Following incubation, 20 μl of BrightGlo luminescence reagent (Promega) was added to each well of the 384-well assay plates. The plates were placed on an orbital shaker for 2 min and then luminescence was quantified using the Envision (Perkin Elmer) plate reader. Readings were normalized to DMSO only treated cells, and normalized activities were utilized for EC50 calculations using the dose-response log (inhibitor) vs. response-variable slope (four parameters) nonlinear regression feature available in GraphPad Prism 5.0 (or Dotmatics). For EC50 of >10 μM, the percent inhibition at 10 μM is provided.
For orientation: A reporter such as luciferase makes a cellular process visible.

pEC50: −log10 of the molar value.

For orientation: pEC50 means the negative decadic logarithm of the EC50, by convention in mol/L. For the compound `c1cc(-c2nccc3[nH]c(-c4n[nH]c5ccc(-c6cncc(CNCC7CCCC7)c6)nc45)cc23)ccn1` [Compound 137, 1-Cyclopentyl-N-((5-(3-(4-(pyridin-4-yl)-1H-pyrrolo[3,2-c]pyridin-2-yl)-1H-pyrazolo[4,3-b]pyridin-5-yl)pyridin-3-yl)methyl)methanamine], the pEC50 was 5.49 in assay [1], 5.04 in assay [2], 5.78 in assay [3] and 5.35 in assay [4].
As for `c1csc(-c2nccc3[nH]c(-c4n[nH]c5ccc(-c6cncnc6)nc45)cc23)c1` [Compound 363, 5-(Pyrimidin-5-yl)-3-(4-(thiophen-2-yl)-1H-pyrrolo[3,2-c]pyridin-2-yl)-1H-pyrazolo[4,3-b]pyridine], the pEC50 in assay [1] is 6.28; in assay [2] it was 5.56; in assay [3], 5.82; in assay [4], 5.57.
As for `CC(C)(C)C(=O)Nc1cncc(-c2ccc3[nH]nc(-c4cc5c(-c6cccc(F)c6)nccc5[nH]4)c3n2)c1` [Compound 8, N-(5-(3-(4-(3-Fluorophenyl)-1H-pyrrolo[3,2-c]pyridin-2-yl)-1H-pyrazolo [4,3-b]pyridin-5-yl)pyridin-3-yl)pivalamide], the pEC50 in assay [1] is 5.97; in assay [2], 6.93; in assay [3], 5.58; in assay [4], 5.31.
In the same order, the values of `Oc1cncc(-c2ccc3[nH]nc(-c4cc5c(-c6cccs6)nccc5[nH]4)c3n2)c1` [Compound 709, 5-(3-(4-(Thiophen-2-yl)-1H-pyrrolo[3,2-c]pyridin-2-yl)-1H-pyrazolo[4,3-b]pyridin-5-yl)pyridin-3-ol] are 7.47, 5.75, 6.34 and 6.82.
For the compound `c1cc2[nH]c(-c3n[nH]c4ccc(-c5cncc(CNCC6CCCC6)c5)nc34)cc2c(-c2ccoc2)n1` [Compound 333, 1-Cyclopentyl-N-((5-(3-(4-(furan-3-yl)-1H-pyrrolo[3,2-c]pyridin-2-yl)-1H-pyrazolo[4,3-b]pyridin-5-yl)pyridin-3-yl)methyl)methanamine], the pEC50 in assay [1] was 6.15; in assay [2] it was 5.04; in assay [3], 5.92; in assay [4], 5.43.
Consider `Fc1ccc(-c2nccc3[nH]c(-c4n[nH]c5ccc(-c6ccccn6)nc45)cc23)cc1` [Compound 56, 3-(4-(4-Fluorophenyl)-1H-pyrrolo[3,2-c]pyridin-2-yl)-5-(pyridin-2-yl)-1H-pyrazolo[4,3-b]pyridine], for which the pEC50 in assay [1] is 5.88; in assay [2], 5.11; in assay [3], 5.59; in assay [4], 5.46.
Consider `Cc1ccncc1-c1ccc2[nH]nc(-c3cc4c(-c5cccs5)nccc4[nH]3)c2n1` [Compound 341, 5-(4-Methylpyridin-3-yl)-3-(4-(thiophen-2-yl)-1H-pyrrolo[3,2-c]pyridin-2-yl)-1H-pyrazolo[4,3-b]pyridine], for which the pEC50 in assay [1] was 6.21; in assay [2] it was 5.27; in assay [3], 6.24; in assay [4], 5.96.
As for `Fc1cccc(-c2nccc3[nH]c(-c4n[nH]c5ccc(C6CCNCC6)nc45)cc23)c1` [Compound 505, 3-(4-(3-Fluorophenyl)-1H-pyrrolo[3,2-c]pyridin-2-yl)-5-(piperidin-4-yl)-1H-pyrazolo[4,3-b]pyridine], the pEC50 is 5.57 in assay [1], 5.82 in assay [2], 5.39 in assay [3] and 5.08 in assay [4].
On to `O=C(Nc1cncc(-c2ccc3[nH]nc(-c4cc5c(-c6cccnc6)nccc5[nH]4)c3n2)c1)C1CCCC1` [Compound 106, N-(5-(3-(4-(Pyridin-3-yl)-1H-pyrrolo[3,2-c]pyridin-2-yl)-1H-pyrazolo[4,3-b]pyridin-5-yl)pyridin-3-yl)cyclopentanecarboxamide], for which the negative-log EC50 (pEC50) in assay [1] is 5.88; in assay [2], 7.06; in assay [3], 6.13; in assay [4], 6.15.
